Laboratory results: patent JP2007509054A, “血管健康を促進するシリルフェノール” (Amylin Pharmaceuticals LLC, priority 2003, dated 2005)

Experiments:
[1] = Serum antioxidant activity in rats fed AC3056 in the diet; assay type: in vivo, rat; conditions: rats fed a diet containing AC3056
[2] = Serum concentration in rats fed AC3056 in the diet; assay type: in vivo, rat; conditions: rats fed a diet containing AC3056
carotid artery (頚動脈) = assay: Mechanical carotid injury model in ApoE-/- mice: quantitative morphometry; assay type: in vivo, mouse; conditions: ApoE-/- male mice, high-fat diet with 1.25% cholesterol, treated 18 h before and daily for 28 days after injury, Fig. 7
[3] = test system: leukocyte recruitment (白血球動員); assay: Mechanical carotid injury model in ApoE-/- mice: CD45-positive cells / leukocyte recruitment; assay type: in vivo, mouse; conditions: ApoE-/- male mice, treated 18 h before and daily for 28 days after injury, Fig. 8
serum lipids (血清脂質) = assay: Ex vivo copper-induced lipid peroxidation of serum lipids (lag phase), rabbits fed compound for 70 days; assay type: in vivo; conditions: rabbit, Fig. 1
VCAM-1 (VCAM−1) [4] = assay: Cytokine (TNF-α) induced VCAM-1 expression in human umbilical vein endothelial cells (HUVEC); assay type: cell-based; conditions: Fig. 2
VCAM-1 (VCAM−1) [5] = assay: IL-4 induced VCAM-1 expression in human coronary artery smooth muscle cells (CASMC); assay type: cell-based; conditions: IL-4 100 nmol/L, Fig. 2

Row | SMILES | antioxidant activity in serum [1] | mean serum concentration [2] [ng/mL] | intima/media ratio (carotid artery (頚動脈)) | mean lumen thickness (carotid artery (頚動脈)) | mean neointimal thickness (carotid artery (頚動脈)) | leukocyte recruitment to the neointimal space after vascular injury (CD45-positive cells) [3] | increase in lag phase versus serum concentration (serum lipids (血清脂質)) | inhibition of cytokine-induced (TNF-α) VCAM-1 expression (VCAM-1 (VCAM−1) [4]) | inhibition of IL-4 induced VCAM-1 expression (VCAM-1 (VCAM−1) [5])
1 | COc1ccc([Si](C)(C)COc2cc(C(C)(C)C)c(O)c(C(C)(C)C)c2)cc1 [AC3056] | 血清中の抗酸化活性の増加 | 17700 | 内膜/中膜の比が低下する | 平均の内腔厚みが増加する | 平均の新血管内膜の厚みが低下する | 白血球動員を阻害する | 血清濃度に比例する | – | –
2 | CC(C)(Sc1cc(C(C)(C)C)c(O)c(C(C)(C)C)c1)Sc1cc(C(C)(C)C)c(O)c(C(C)(C)C)c1 [プロブコール] | – | – | – | – | – | – | – | 同様の濃度範囲にて有効ではない | 本発明の化合物より一般的に有効ではない
